# From PubChem BioAssay AID328 (DTP/NCI, 2004)
# Values joined by “and” are separate entries in the source; they are usually repeats but may differ in a detail not shown here. Equal entries are not always repeated. Inconclusive results and toxic doses are left out.
# System: BDF1 mice, P388 leukemia ip, median survival T/C
# Experiment: NCI In Vivo Anticancer Drug Screen. Data for tumor model P388 Leukemia (intraperitoneal) in B6D2F1 (BDF1) mice
# Conditions: endpoint: median survival time, higher = longer survival
# Summary of the method: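 Each value expresses how treatment altered survival: treated-mouse outcome over vehicle-mouse outcome, both groups bearing the transplanted tumour.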
# [1] = dose: 6.25 mg/kg/injection, schedule: Q01DX009 (ip), vehicle: saline
# [2] = dose: 12.5 mg/kg/injection, schedule: Q01DX009 (ip), vehicle: saline
# [3] = dose: 50.0 mg/kg/injection, schedule: Q01DX009 (ip), vehicle: saline
# [4] = dose: 12.5 mg/kg/injection, schedule: Q01DX009 (ip), vehicle: saline with Tween-80
# [5] = dose: 25.0 mg/kg/injection, schedule: Q01DX009 (ip), vehicle: saline with Tween-80
# [6] = dose: 50.0 mg/kg/injection, schedule: Q04DX003 (ip), vehicle: saline with Tween-80
# [7] = dose: 25.0 mg/kg/injection, schedule: Q01DX009 (ip), vehicle: saline
# [8] = dose: 50.0 mg/kg/injection, schedule: Q01DX009 (ip), vehicle: saline with Tween-80
# [9] = dose: 100.0 mg/kg/injection, schedule: Q01DX009 (ip), vehicle: saline with Tween-80
# [10] = dose: 200.0 mg/kg/injection, schedule: Q01DX009 (ip), vehicle: saline with Tween-80
# [11] = dose: 100.0 mg/kg/injection, schedule: Q01DX009 (ip), vehicle: Klucel (hydroxypropylcellulose) (HPC)
# [12] = dose: 200.0 mg/kg/injection, schedule: Q01DX009 (ip), vehicle: Klucel (hydroxypropylcellulose) (HPC)
# [13] = dose: 400.0 mg/kg/injection, schedule: Q01DX009 (ip), vehicle: Klucel (hydroxypropylcellulose) (HPC)
# [14] = dose: 50.0 mg/kg/injection, schedule: Q01DX009 (ip), vehicle: Klucel (hydroxypropylcellulose) (HPC)
# [15] = dose: 100.0 mg/kg/injection, schedule: Q04DX003 (ip), vehicle: saline
# [16] = dose: 100.0 mg/kg/injection, schedule: Q04DX003 (ip), vehicle: Klucel (hydroxypropylcellulose) (HPC)
# [17] = dose: 200.0 mg/kg/injection, schedule: Q04DX003 (ip), vehicle: Klucel (hydroxypropylcellulose) (HPC)
# [18] = dose: 400.0 mg/kg/injection, schedule: Q04DX003 (ip), vehicle: Klucel (hydroxypropylcellulose) (HPC)
smiles,measurement,setting,value
Cc1cc[n+](CCc2ccccc2)cc1,T/C,[1],91 % of control
same,T/C,[2],87 % of control
same,T/C,"dose: 18.75 mg/kg/injection, schedule: Q01DX010 (ip), vehicle: acetone",91 % of control
same,T/C,"dose: 37.5 mg/kg/injection, schedule: Q01DX010 (ip), vehicle: acetone",87 % of control
same,T/C,[3],112 % of control
same,T/C,"dose: 75.0 mg/kg/injection, schedule: Q01DX010 (ip), vehicle: acetone",91 % of control
CCOC(=O)c1ccc(N=CNc2ccc(C(=O)OCC)cc2)cc1,T/C,[4],100 % of control
same,T/C,[5],92 % of control
same,T/C,"dose: 25.0 mg/kg/injection, schedule: Q04DX003 (ip), vehicle: saline with Tween-80",91 % of control
same,T/C,[6],87 % of control
COC1C(C)OC(OC2CC(C)(O)Cc3cc4c(c(O)c32)C(=O)c2c(O)cc3c(c2C4=O)OC2OC3(C)C(O)C(N(C)C)C2O)C(OC)C1(C)OC (stereo not given),T/C,"dose: 1.25 mg/kg/injection, schedule: Q01DX009 (ip), vehicle: other",122 % of control
same,T/C,"dose: 4.32 mg/kg/injection, schedule: Q04DX003 (ip), vehicle: water",169 % of control
same,T/C,"dose: 5.0 mg/kg/injection, schedule: Q01DX009 (ip), vehicle: other",154 % of control
same,T/C,"dose: 7.2 mg/kg/injection, schedule: Q04DX003 (ip), vehicle: water",183 % of control
same,T/C,"dose: 10.0 mg/kg/injection, schedule: Q01DX009 (ip), vehicle: other",151 % of control
same,T/C,"dose: 20.0 mg/kg/injection, schedule: Q04DX003 (ip), vehicle: water",111 % of control
CC12OC(=O)CC1CC(=O)O2 (stereo not given),T/C,"dose: 50.0 mg/kg/injection, schedule: Q01DX001 (ip), vehicle: saline",95 % of control
same,T/C,"dose: 100.0 mg/kg/injection, schedule: Q01DX001 (ip), vehicle: saline",95 % of control
same,T/C,"dose: 200.0 mg/kg/injection, schedule: Q01DX001 (ip), vehicle: saline",105 % of control
O=[N+]([O-])c1ccc(Sc2ccc(Cl)cc2)c2c1no[n+]2[O-],T/C,"dose: 15.0 mg/kg/injection, schedule: Q01DX009 (ip), vehicle: saline with Tween-80",112 % of control
same,T/C,"dose: 30.0 mg/kg/injection, schedule: Q01DX009 (ip), vehicle: saline with Tween-80",112 % of control
same,T/C,"dose: 60.0 mg/kg/injection, schedule: Q01DX009 (ip), vehicle: saline with Tween-80",112 % of control
CCCCC(C)(CN(C)C)C(=O)/C=C/c1ccc(Cl)c(Cl)c1 (stereo not given),T/C,[1],112 % of control
same,T/C,[2],120 % of control
same,T/C,[7],118 % of control
CCCCCCCCCCCC[n+]1ccc(C)cc1C,T/C,"dose: 62.0 micrograms/kg/injection, schedule: Q01DX009 (ip), vehicle: saline",107 % of control
same,T/C,"dose: 125.0 micrograms/kg/injection, schedule: Q01DX009 (ip), vehicle: saline",102 % of control
same,T/C,"dose: 250.0 micrograms/kg/injection, schedule: Q01DX009 (ip), vehicle: saline",113 % of control
same,T/C,"dose: 500.0 micrograms/kg/injection, schedule: Q01DX009 (ip), vehicle: saline",116 % of control
CCN(CC)c1ccc2c(C)cc(=O)oc2c1,T/C,"dose: 6.25 mg/kg/injection, schedule: Q01DX009 (ip), vehicle: saline with Tween-80",100 % of control
same,T/C,[4],94 % of control
same,T/C,[5],94 % of control
same,T/C,[8],94 % of control
same,T/C,[9],92 % of control
same,T/C,[10],94 % of control
Nc1n[nH]c(=S)n1-c1ccccc1,T/C,"dose: 100.0 mg/kg/injection, schedule: Q01DX001 (ip), vehicle: Klucel (hydroxypropylcellulose) (HPC)",104 % of control
same,T/C,[11],95 % of control
same,T/C,"dose: 200.0 mg/kg/injection, schedule: Q01DX001 (ip), vehicle: Klucel (hydroxypropylcellulose) (HPC)",95 % of control
same,T/C,[12],91 % of control
same,T/C,"dose: 400.0 mg/kg/injection, schedule: Q01DX001 (ip), vehicle: Klucel (hydroxypropylcellulose) (HPC)",90 % of control
same,T/C,[13],104 % of control
CC(=O)O[C@]1(C(C)=O)CC[C@H]2[C@@H]3C[C@H](C)C4=CC(=O)CC[C@]4(C)[C@H]3CC[C@@]21C,T/C,[14],103 % of control
same,T/C,[11],111 % of control
same,T/C,"dose: 100.0 mg/kg/injection, schedule: Q04DX003 (ip), vehicle: other",110 % of control
same,T/C,[12],94 % of control and 95 % of control
same,T/C,"dose: 200.0 mg/kg/injection, schedule: Q04DX003 (ip), vehicle: other",100 % of control
same,T/C,[13],87 % of control
same,T/C,"dose: 400.0 mg/kg/injection, schedule: Q04DX003 (ip), vehicle: other",115 % of control
OC1(CSc2ccccc2)C=CCCC1 (stereo not given),T/C,[5],97 % of control and 111 % of control
same,T/C,[8],98 % of control and 112 % of control and 113 % of control
same,T/C,[9],109 % of control and 112 % of control and 121 % of control
same,T/C,[10],111 % of control and 119 % of control and 120 % of control
C/C(=N\[N+](C)(C)C)c1cccc(C)n1,T/C,[7],100 % of control
same,T/C,"dose: 25.0 mg/kg/injection, schedule: Q04DX003 (ip), vehicle: saline",108 % of control
same,T/C,"dose: 33.0 mg/kg/injection, schedule: Q04DX003 (ip), vehicle: saline with Tween-80",100 % of control
same,T/C,"dose: 33.0 mg/kg/injection, schedule: Q04DX003 (ip), vehicle: saline",104 % of control
same,T/C,[3],95 % of control
same,T/C,[6],100 % of control
same,T/C,"dose: 50.0 mg/kg/injection, schedule: Q04DX003 (ip), vehicle: saline",95 % of control
same,T/C,"dose: 75.0 mg/kg/injection, schedule: Q04DX003 (ip), vehicle: saline with Tween-80",100 % of control
same,T/C,"dose: 75.0 mg/kg/injection, schedule: Q04DX003 (ip), vehicle: saline",100 % of control
same,T/C,[15],108 % of control
COC(=O)CCCC1=NC2=CC=CC3=NC(C)=NC(=N1)N23,T/C,[5],110 % of control
same,T/C,[9],99 % of control
NC(=S)N/N=C/c1ccc(OC(=O)COc2ccccc2)cn1,T/C,"dose: 1.56 mg/kg/injection, schedule: Q01DX009 (ip), vehicle: saline with Tween-80",124 % of control
same,T/C,[4],163 % of control
same,T/C,[5],181 % of control
same,T/C,[8],209 % of control
same,T/C,[9],235 % of control
CC(=O)OCCN1c2ccccc2Sc2cnccc21,T/C,"dose: 100.0 mg/kg/injection, schedule: Q04DX003 (ip), vehicle: saline with Tween-80",104 % of control
same,T/C,"dose: 200.0 mg/kg/injection, schedule: Q04DX003 (ip), vehicle: saline with Tween-80",90 % of control
same,T/C,"dose: 400.0 mg/kg/injection, schedule: Q04DX003 (ip), vehicle: saline with Tween-80",95 % of control
C/C(CC1(O)C(=O)Nc2ccccc21)=N\O (stereo not given),T/C,[9],100 % of control
same,T/C,[10],95 % of control
same,T/C,"dose: 400.0 mg/kg/injection, schedule: Q01DX009 (ip), vehicle: saline with Tween-80",104 % of control
CCOC(=O)c1[nH]cnc1/N=N/N(C)CCO,T/C,"dose: 14.0 mg/kg/injection, schedule: Q01DX009 (ip), vehicle: saline",104 % of control
same,T/C,"dose: 21.0 mg/kg/injection, schedule: Q01DX009 (ip), vehicle: saline",100 % of control
same,T/C,"dose: 66.0 mg/kg/injection, schedule: Q01DX009 (ip), vehicle: saline",115 % of control
same,T/C,"dose: 264.0 mg/kg/injection, schedule: Q01DX009 (ip), vehicle: saline with Tween-80",113 % of control
same,T/C,"dose: 600.0 mg/kg/injection, schedule: Q01DX009 (ip), vehicle: saline with Tween-80",118 % of control
same,T/C,"dose: 600.0 mg/kg/injection, schedule: Q01DX009 (ip), vehicle: saline",163 % of control
CC(=O)CC(=O)Nc1nc2ccccc2s1,T/C,[3],94 % of control
same,T/C,"dose: 200.0 mg/kg/injection, schedule: Q01DX009 (ip), vehicle: saline",105 % of control
CC(Br)C(=O)NC(CO)C(=O)O (stereo not given),T/C,[15],95 % of control
same,T/C,"dose: 200.0 mg/kg/injection, schedule: Q04DX003 (ip), vehicle: saline",91 % of control
same,T/C,"dose: 400.0 mg/kg/injection, schedule: Q04DX003 (ip), vehicle: saline",91 % of control
NC(=O)c1cn[nH]c1N,T/C,"dose: 12.5 mg/kg/injection, schedule: Q01DX009 (ip), vehicle: Klucel (hydroxypropylcellulose) (HPC)",95 % of control
same,T/C,"dose: 25.0 mg/kg/injection, schedule: Q01DX009 (ip), vehicle: Klucel (hydroxypropylcellulose) (HPC)",87 % of control
same,T/C,[14],91 % of control
same,T/C,[16],104 % of control
same,T/C,[17],100 % of control
same,T/C,[18],113 % of control
CN(C)c1ccc(/C=C/c2nc3ccccc3o2)cc1,T/C,[16],90 % of control
same,T/C,[17],90 % of control
same,T/C,[18],100 % of control
